Laboratory results taken from patent publication US20260053932A1, “COMPOUNDS AND METHODS FOR THE TARGETED DEGRADATION OF ANDROGEN RECEPTOR AND ASSOCIATED METHODS OF USE” (Arvinas Operations, Inc., priority 2020, published 2026).

System: androgen receptor (AR) in LNCaP and/or VCaP cells
Assay: Androgen Receptor ELISA assay (AR degradation)
Assay type: cell-based
Settings: LNCaP and/or VCaP cells; 5 hours incubation; media with R1881; read-out: DC50 Code* (degradation of AR ELISA)
Outline: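 VCaP cells grown ≥3 days, then treated 5 h with compound in media containing 1 nM R1881 (10× stock). Cells lysed and AR quantified by sandwich ELISA (mouse AR detection Ab, HRP anti-mouse, TMB). DC50 and Dmax derived from AR degradation.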

| DC50 | Compound |
| --- | --- |
| < 1 nM | COc1cc(O[C@H]2CC[C@H](NC(=O)c3cnc(N4CCC(CN(C(C)C)[C@H]5C[C@H](Oc6ccc7c(c6)C(=O)N(C6CCC(=O)NC6=O)C7=O)C5)CC4)cn3)CC2)ccc1C#N (stereo partly shown) [Compound 32, N-((1r,4r)-4-(4-cyano-3-methoxyphenoxy)cyclohexyl)-5-(4-((((1r,3r)-3-((2-(2,6-dioxopiperidin-3-yl)-1,3-dioxoisoindolin-5-yl)oxy)cyclobutyl) (isopropyl)amino)methyl)piperidin-1-yl)pyrazine-2-carboxamide] |
| < 1 nM | COc1cc(O[C@H]2CC[C@H](NC(=O)c3cnc(N4CC5(CC(CN(C(C)C)[C@H]6C[C@H](Oc7ccc8c(c7)CN(C7CCC(=O)NC7=O)C8=O)C6)C5)C4)cn3)CC2)ccc1C#N (stereo partly shown) [Compound 27, N-((1r,4r)-4-(4-cyano-3-methoxyphenoxy)cyclohexyl)-5-(6-((((1r,3r)-3-((2-(2,6-dioxopiperidin-3-yl)-1-oxoisoindolin-5-yl)oxy)cyclobutyl) (isopropyl)amino)methyl)-2-azaspiro[3.3]heptan-2-yl)pyrazine-2-carboxamide] |
| < 1 nM | COCCN(CC1CCN(c2cnc(C(=O)N[C@H]3CC[C@H](Oc4ccc(C#N)c(Cl)c4)CC3)cn2)CC1)[C@H]1C[C@H](Oc2ccc3c(c2)C(=O)N(C2CCC(=O)NC2=O)C3=O)C1 (stereo partly shown) [Compound 58, N-((1r,4r)-4-(3-chloro-4-cyanophenoxy)cyclohexyl)-5-(4-((((1r,3r)-3-((2-(2,6-dioxopiperidin-3-yl)-1,3-dioxoisoindolin-5-yl)oxy)cyclobutyl)(2-methoxyethyl)amino)methyl)piperidin-1-yl)pyrazine-2-carboxamide] |

Same assay, conditions: degradation of AR ELISA in LNCaP and/or VCaP cells; Table 2C; read-out: DC50 Code*

| DC50 | Compound |
| --- | --- |
| > 100 nM | CC(C)N(CC1CCN(c2cnc(C(=O)N[C@H]3C(C)(C)[C@H](Oc4ccc(C#N)c(Cl)c4)C3(C)C)cn2)CC1)[C@H]1C[C@H](Oc2ccc3c(c2)C2(CC2)N(C2CCC(=O)NC2=O)C3=O)C1 (stereo partly shown) [compound 138, N-((1r,3r)-3-(3-chloro-4-cyanophenoxy)-2,2,4,4-tetramethylcyclobutyl)-5-(4-((((1r,3r)-3-((2′-(2,6-dioxopiperidin-3-yl)-3′-oxospiro[cyclopropane-1,1′-isoindolin]-6′-yl)oxy)cyclobutyl) (isopropyl)amino)methyl)piperidin-1-yl)pyrazine-2-carboxamide] |
| < 1 nM | Cc1cc(O[C@H]2C(C)(C)[C@H](NC(=O)c3cnc(N4CC5(CC(CN(C(C)C)[C@H]6C[C@H](Oc7ccc8c(c7)C(=O)N(C7CCC(=O)NC7=O)C8=O)C6)C5)C4)cn3)C2(C)C)cc(C)c1C#N (stereo partly shown) [compound 175, N-((1r,3r)-3-(4-cyano-3,5-dimethylphenoxy)-2,2,4,4-tetramethylcyclobutyl)-5-(6-((((1r,3r)-3-((2-(2,6-dioxopiperidin-3-yl)-1,3-dioxoisoindolin-5-yl)oxy)cyclobutyl) (isopropyl)amino)methyl)-2-azaspiro[3.3]heptan-2-yl)pyrazine-2-carboxamide] |
| < 1 nM | [2H]C([2H])([2H])Oc1cc(O[C@H]2C(C)(C)[C@H](NC(=O)c3ccc(N4CCC(CN(C(C)C)[C@H]5C[C@H](Oc6cc(OC([2H])([2H])[2H])c7c(c6)C(=O)N(C6CCC(=O)NC6=O)C7=O)C5)CC4)cc3)C2(C)C)ccc1C#N (mixture of isomers) [compound 149, rac-N-((1r,3r)-3-(4-cyano-3-(methoxy-d3)phenoxy)-2,2,4,4-tetramethylcyclobutyl)-4-(4-((((1r,3r)-3-((2-(2,6-dioxopiperidin-3-yl)-7-(methoxy-d3)-1,3-dioxoisoindolin-5-yl)oxy)cyclobutyl) (isopropyl)amino)methyl)piperidin-1-yl)benzamide] |
| 1 to 10 nM | COc1cc(O[C@H]2C(C)(C)[C@H](NC(=O)c3cnc(N4CCC(CN(CC(F)F)[C@H]5C[C@H](Oc6cc(OC)c7c(c6)C(=O)N(C6CCC(=O)NC6=O)C7=O)C5)CC4)cn3)C2(C)C)ccc1C#N (stereo partly shown) [compound 135, N-((1r,3r)-3-(4-cyano-3-methoxyphenoxy)-2,2,4,4-tetramethylcyclobutyl)-5-(4-(((2,2-difluoroethyl)((1r,3r)-3-((2-(2,6-dioxopiperidin-3-yl)-7-methoxy-1,3-dioxoisoindolin-5-yl)oxy)cyclobutyl)amino)methyl)piperidin-1-yl)pyrazine-2-carboxamide] |
| < 1 nM | Cc1cc(O[C@H]2C(C)(C)[C@H](NC(=O)c3ccc(N4CC(CN(C(C)C)[C@H]5C[C@H](Oc6ccc7c(c6)C(=O)N(C6CCC(=O)NC6=O)C7=O)C5)C4)cc3)C2(C)C)cc(C)c1C#N (stereo partly shown) [compound 187, N-((1r,3r)-3-(4-cyano-3,5-dimethylphenoxy)-2,2,4,4-tetramethylcyclobutyl)-4-(3-((((1r,3r)-3-((2-(2,6-dioxopiperidin-3-yl)-1,3-dioxoisoindolin-5-yl)oxy)cyclobutyl) (isopropyl)amino)methyl)azetidin-1-yl)benzamide] |
| < 1 nM | CC1(C)[C@H](NC(=O)c2ccc(N3CCN([C@H]4CC[C@H](Oc5ccc6c(c5)C(=O)N(C5CCC(=O)NC5=O)C6=O)C4)CC3)cc2)C(C)(C)[C@H]1Oc1ccc(C#N)c(Cl)c1 (stereo partly drawn) [compound 125, N-((1r,3S)-3-(3-chloro-4-cyanophenoxy)-2,2,4,4-tetramethylcyclobutyl)-4-(4-((1S,3S)-3-((2-(2,6-dioxopiperidin-3-yl)-1,3-dioxoisoindolin-5-yl)oxy)cyclopentyl)piperazin-1-yl)benzamide] |

More lines, now with the values behind:

| Compound | DC50 |
| --- | --- |
| COCCN(CC1CCN(c2cnc(C(=O)N[C@H]3C(C)(C)[C@H](Oc4cc(C)c(C#N)c(C)c4)C3(C)C)cn2)CC1)[C@H]1C[C@H](Oc2ccc3c(c2)C(=O)N(C2CCC(=O)NC2=O)C3=O)C1 (stereo partly shown) [compound 119, N-((1r,3r)-3-(4-cyano-3,5-dimethylphenoxy)-2,2,4,4-tetramethylcyclobutyl)-5-(4-((((1r,3r)-3-((2-(2,6-dioxopiperidin-3-yl)-1,3-dioxoisoindolin-5-yl)oxy)cyclobutyl)(2-methoxyethyl)amino)methyl)piperidin-1-yl)pyrazine-2-carboxamide] | < 1 nM |
| COc1cc(O[C@H]2C[C@H](N(CC3CCN(c4ncc(C(=O)N[C@H]5C(C)(C)[C@H](Oc6cc(C)c(C#N)c(C)c6)C5(C)C)cn4)CC3)C(C)=O)C2)cc2c1C(=O)N(C1CCC(=O)NC1=O)C2=O (stereo partly shown) [compound 81, N-((1r,3r)-3-(4-cyano-3,5-dimethylphenoxy)-2,2,4,4-tetramethylcyclobutyl)-2-(4-((N-((1r,3r)-3-((2-(2,6-dioxopiperidin-3-yl)-7-methoxy-1,3-dioxoisoindolin-5-yl)oxy)cyclobutyl)acetamido)methyl)piperidin-1-yl)pyrimidine-5-carboxamide] | < 1 nM |
| CC1(C)[C@H](NC(=O)c2ccc(N3CCC(CN4CC5CN(c6ccc7c(c6)C(=O)N(C6CCC(=O)NC6=O)C7=O)CC5C4)CC3)cc2)C(C)(C)[C@H]1Oc1ccc(C#N)c(Cl)c1 (stereo partly shown) [compound 114, N-((1r,3r)-3-(3-chloro-4-cyanophenoxy)-2,2,4,4-tetramethylcyclobutyl)-4-(4-((5-(2-(2,6-dioxopiperidin-3-yl)-1,3-dioxoisoindolin-5-yl)hexahydropyrrolo[3,4-c]pyrrol-2(1H)-yl)methyl)piperidin-1-yl)benzamide] | < 1 nM |
| Cc1cc(O[C@H]2C(C)(C)[C@H](NC(=O)c3ccc(N4CCC(O[C@H]5C[C@H](Oc6ccc7c(c6)C(=O)N(C6CCC(=O)NC6=O)C7=O)C5)CC4)cc3)C2(C)C)cc(C)c1C#N (mixture of isomers) [compound 178, N-((1r,3r)-3-(4-cyano-3,5-dimethylphenoxy)-2,2,4,4-tetramethylcyclobutyl)-4-(4-((1r,3r)-3-((2-(2,6-dioxopiperidin-3-yl)-1,3-dioxoisoindolin-5-yl)oxy)cyclobutoxy)piperidin-1-yl)benzamide] | < 1 nM |
| Cc1cc(O[C@H]2C(C)(C)[C@H](NC(=O)c3cnc(N4CCC(CN(C(C)C)[C@H]5C[C@H](Oc6cccc7c6C(=O)N(C6CCC(=O)NC6=O)C7=O)C5)CC4)nc3)C2(C)C)cc(C)c1C#N (stereo partly shown) [compound 88, N-((1r,3r)-3-(4-cyano-3,5-dimethylphenoxy)-2,2,4,4-tetramethylcyclobutyl)-2-(4-((((1r,3r)-3-((2-(2,6-dioxopiperidin-3-yl)-1,3-dioxoisoindolin-4-yl)oxy)cyclobutyl) (isopropyl)amino)methyl)piperidin-1-yl)pyrimidine-5-carboxamide] | < 1 nM |
| COCCN(CC1CCN(c2ccc(C(=O)N[C@H]3C(C)(C)[C@H](Oc4ccc(C#N)c(OC)c4)C3(C)C)cc2)CC1)[C@H]1C[C@H](Oc2cc(OC)c3c(c2)C(=O)N(C2CCC(=O)NC2=O)C3=O)C1 (stereo partly shown) [compound 94, N-((1r,3r)-3-(4-cyano-3-methoxyphenoxy)-2,2,4,4-tetramethylcyclobutyl)-4-(4-((((1r,3r)-3-((2-(2,6-dioxopiperidin-3-yl)-7-methoxy-1,3-dioxoisoindolin-5-yl)oxy)cyclobutyl)(2-methoxyethyl)amino)methyl)piperidin-1-yl)benzamide] | < 1 nM |

Same assay, conditions: degradation of AR ELISA in LNCaP and/or VCaP cells; read-out: DC50 Code*

| Compound | DC50 |
| --- | --- |
| Cc1cc(O[C@H]2C(C)(C)[C@H](NC(=O)c3cnc(N4CCC(CN(C(C)C)[C@H]5C[C@H](Oc6ccc7c(c6)C(=O)N(C6CCC(=O)N(COP(=O)(O)OCOC(=O)OC(C)C)C6=O)C7=O)C5)CC4)cn3)C2(C)C)cc(C)c1C#N (mixture of isomers) [compound 247, rac-((((3-(5-((1r,3r)-3-(((1-(5-(((1r,3r)-3-(4-cyano-3,5-dimethylphenoxy)-2,2,4,4-tetramethylcyclobutyl)carbamoyl)pyrazin-2-yl)piperidin-4-yl)methyl)(isopropyl)amino)cyclobutoxy)-1,3-dioxoisoindolin-2-yl)-2,6-dioxopiperidin-1-yl)methoxy)(hydroxy)phosphoryl)oxy)methyl isopropyl carbonate] | > 100 nM |
